In patent publication US20050250801A1, “Method of treating cancer with azaspirane compositions” (priority 2003, published 2005):
Like-named read-outs stand apart in the source and are kept apart here.

Experiments:
Type in all cases: cell-based
[1] = tested on: HUVEC cells; assay: Inhibition of HUVEC proliferation (WST-1, Example 2); conditions: Homo sapiens
[2] = tested on: SF-295; assay: NCI in vitro SRB assay, CNS Cancer; conditions: for CC50 / GI50: Homo sapiens
Experimental: (§1) An in vitro assay which tested the ability of N,N,-diethyl-8,8-dipropyl-2-azaspiro[4,5]decane-2-propanamine dimaleate (Compound 1) to inhibit the growth of known cancer cell lines was performed by the National Cancer Institute in accordance with standard procedures. See: Lin, Z. X., Hoult, J. R., and Raman, A. Sulphorhodamine B assay for measuring proliferation of a pigmented melanocyte cell line and its application to the evaluation of crude drugs used in the treatment of vitiligo. J Ethnopharmacol. 66: 141-150, 1999. Briefly, selected tumor cell lines were cultured in media containing five different concentrations of Compound 1. After 48 hours of continuous exposure, a sulforhodamine B (SRB) assay was used to estimate cell viability or growth via optical measurements.
(§2) From the measurements, the following values were determined: 1) the concentration of Compound 1 at which a tumor cell growth inhibition of 50% (relative to control) occurs (GI50), 2) the concentration of Compound 1 at which no growth occurs (total growth inhibition, TGI), and 3) the concentration of Compound 1 at which the […] (LC 50). […] FIG. 6 illustrates, graphically, tumor cell growth as a function of Compound 1 concentration of the scanned tumor cell lines.

[3] = tested on: U251; assay: NCI in vitro SRB assay, CNS Cancer; conditions: for CC50 / GI50: Homo sapiens; for GI50: U-251
Experimental: as §1, §2

[4] = tested on: SF-268; assay: NCI in vitro SRB assay, CNS Cancer; conditions: for CC50 / GI50: Homo sapiens
Experimental: as §1, §2

[5] = tested on: SF-539; assay: NCI in vitro SRB assay, CNS Cancer; conditions: for GI50: Homo sapiens
Experimental: as §1, §2

[6] = tested on: CaCo-2 cells; assay: Inhibition of proliferation of CaCo-2 cells (WST-1, Example 8); conditions: Homo sapiens, 12 hours
Experimental: The effect of N,N,-diethyl-8,8-dipropyl-2-azaspiro[4,5]decane-2-propanamine dimaleate (Compound 1) and other analogs (structures shown in Table 7) on proliferation of CaCo-2, a human colon carcinoma cell line, were evaluated in the following manner. Cell proliferation was measured by WST-1 dye conversion to Formazan assay using a proliferation kit from BioVision, CA. The procedure used was essentially the same as described in the manufacture's instructions. Briefly, cells were grown for 7 days until they formed semi-confluent monolayers. On day 7, cells were trypsinized and re-suspended in 96-well plates at a concentration of approximately 50,000 cells/well. […] A solution of 10 μl of WST-1 dye per well was added and plates were read after 4 hours at 440 and 600 nm using an ELISA plate reader. The absorbance at 440-600 nm is directly proportion to the number of proliferating cells. All samples were measured in duplicate and results were expressed as an average of two determinations.

[7] = tested on: HUVEC; assay: HUVEC cell migration assay (Boyden chamber); conditions: Homo sapiens, 5 hours incubation, read-out: IC50 Concentration, Migration
Experimental: Migration is assessed using the 48-well Boyden chamber and 8 μm pore size collagen-coated (10 μg/ml rat tail collagen; Collaborative Laboratories) polycarbonate filters (Osmonics, Inc.). The bottom chamber wells receive 27-29 μl of Dulbecco's Modified Eagle Medium (“DMEM”) alone (baseline) or medium containing chemo-attractant (bFGF, VEGF or […] cell conditioned medium). The top chambers receive 45 μl of a HUVEC cell suspension (1×10^6 cells/ml) prepared in DMEM+1% Bovine Serum Albumin (“BSA”) with or without test compound. After 5 hours incubation at 37° C. the membrane is rinsed in Phosphate Buffer Saline (“PBS”), fixed and stained in Diff-Quick solutions. The filter is placed on a glass slide with the migrated cells facing down and cells on top are removed using a Kimwipe. The testing is performed in 4-6 replicates and five fields are counted from each well. Negative unstimulated control values are subtracted from stimulated control and drug treated values and data is plotted as mean migrated cell±Standard Deviation.

[8] = SF-295, Log10 conc -4.0 Moles/L
[9] = SF-295, Log10 conc -5.0 Moles/L
[10] = SF-295, Log10 conc -6.0 Moles/L
[11] = SF-295, Log10 conc -7.0 Moles/L
[12] = SF-295, Log10 conc -8.0 Moles/L
[13] = SF-268, Log10 conc -4.0 Moles/L
[14] = SF-268, Log10 conc -5.0 Moles/L
[15] = SF-268, Log10 conc -6.0 Moles/L
[16] = SF-268, Log10 conc -7.0 Moles/L
[17] = SF-268, Log10 conc -8.0 Moles/L

SMILES: CCCC1(CCC)CCC2(CCN(CCCN(CC)CC)C2)CC1.O=C(O)/C=C\C(=O)O.O=C(O)/C=C\C(=O)O [Compound 1, N,N,-diethyl-8,8-dipropyl-2-azaspiro[4,5]decane-2-propanamine dimaleate]
- IC50 [1]: 1250 to 2500 nM
- CC50 ([2]; SF-295, read-out: LC50): 8210 nM
- CC50 ([2]; SF-295, read-out: Log10 LC50 (converted)): 8130 nM
- GI50 ([2]; SF-295, read-out: GI50): 1930 nM
- GI50 ([2]; SF-295, read-out: Log10 GI50 (converted)): 1950 nM
- Log10 TGI ([2]; SF-295): −5.40
- TGI ([2]; SF-295): 3980 nM
- Mean Optical Densities [2, 8]: 0.239
- Percent Growth [2, 8]: −57%
- Mean Optical Densities [2, 9]: 0.202
- Percent Growth [2, 9]: −64%
- Mean Optical Densities [2, 10]: 1.520
- Percent Growth [2, 10]: 96%
- Mean Optical Densities [2, 11]: 1.653
- Percent Growth [2, 11]: 109%
- Mean Optical Densities [2, 12]: 1.614
- Percent Growth [2, 12]: 105%
- CC50 ([3]; U-251, read-out: LC50): 4690 nM
- CC50 ([3]; U-251, read-out: Log10 LC50 (converted)): 4680 nM
- GI50 ([3]; U251, read-out: GI50): 1030 nM
- GI50 ([3]; U251, read-out: Log10 GI50 (converted)): 1020 nM
- Log10 TGI ([3]; U251): −5.66
- TGI ([3]; U251): 2200 nM
- Mean Optical Densities ([3]; U251, Log10 conc -4.0 Moles/L): −0.042
- Percent Growth ([3]; U251, Log10 conc -4.0 Moles/L): −100%
- Mean Optical Densities ([3]; U251, Log10 conc -5.0 Moles/L): −0.049
- Percent Growth ([3]; U251, Log10 conc -5.0 Moles/L): −100%
- Mean Optical Densities ([3]; U251, Log10 conc -6.0 Moles/L): 0.602
- Percent Growth ([3]; U251, Log10 conc -6.0 Moles/L): 52%
- Mean Optical Densities ([3]; U251, Log10 conc -7.0 Moles/L): 0.864
- Percent Growth ([3]; U251, Log10 conc -7.0 Moles/L): 88%
- Mean Optical Densities ([3]; U251, Log10 conc -8.0 Moles/L): 0.885
- Percent Growth ([3]; U251, Log10 conc -8.0 Moles/L): 90%
- CC50 ([4]; SF-268, read-out: LC50): 5800 nM
- CC50 ([4]; SF-268, read-out: Log10 LC50 (converted)): 5750 nM
- GI50 ([4]; SF-268, read-out: GI50): 1430 nM
- GI50 ([4]; SF-268, read-out: Log10 GI50 (converted)): 1450 nM
- Log10 TGI ([4]; SF-268): −5.54
- TGI ([4]; SF-268): 2880 nM
- Mean Optical Densities [4, 13]: 0.058
- Percent Growth [4, 13]: −80%
- Mean Optical Densities [4, 14]: 0.033
- Percent Growth [4, 14]: −89%
- Mean Optical Densities [4, 15]: 1.004
- Percent Growth [4, 15]: 75%
- Mean Optical Densities [4, 16]: 1.181
- Percent Growth [4, 16]: 94%
- Mean Optical Densities [4, 17]: 1.193
- Percent Growth [4, 17]: 95%
- Log10 TGI [5]: −5.50
- TGI [5]: 3130 nM
- GI50 ([5]; read-out: GI50): 1570 nM
- GI50 ([5]; read-out: Log10 GI50 (converted)): 1580 nM
- Mean Optical Densities ([5]; Log10 conc -4.0 Moles/L): 0.033
- Percent Growth ([5]; Log10 conc -4.0 Moles/L): −89%
- Mean Optical Densities ([5]; Log10 conc -5.0 Moles/L): 0.050
- Percent Growth ([5]; Log10 conc -5.0 Moles/L): −84%
- Mean Optical Densities ([5]; Log10 conc -6.0 Moles/L): 0.559
- Percent Growth ([5]; Log10 conc -6.0 Moles/L): 83%
- Mean Optical Densities ([5]; Log10 conc -7.0 Moles/L): 0.612
- Percent Growth ([5]; Log10 conc -7.0 Moles/L): 100%
- Mean Optical Densities ([5]; Log10 conc -8.0 Moles/L): 0.591
- Percent Growth ([5]; Log10 conc -8.0 Moles/L): 93%
- inhibition at 5 µM ([6]; 5 μM, read-out: % Inhibition of Proliferation at 5 μM Compound): 85%
- IC50 [6]: ~2500 nM
- IC50 [7]: 530 nM
